Measurements published in ChEMBL document CHEMBL1130200, “Discovery of 3-aminobenzyloxycarbonyl as an N-terminal group conferring high affinity to the minimal phosphopeptide sequence recognized by the Grb2-SH2 domain” (J Med Chem, 1997).
Where a SMILES comes first, the peptide text is derived from it. [ ]: non-standard residue; d: D form. The star is where a group is joined. pY = N[C@@H](Cc1ccc(OP(=O)(O)O)cc1)C(=O)O; 2Abz = Nc1ccccc1C(=O)O; Cbz = O=C(OCc1ccccc1)*

Biological target: Growth factor receptor-bound protein 2 (Homo sapiens, UniProt P62993)
Experiment: Inhibition of Grb2-SH2 domain binding to phospho-EGF receptor intracellular C-terminal domain

| IC50 [µM] | Structure (SMILES) |
| --- | --- |
| 56.9 | CC[C@H](C)[C@H](NC(=O)[C@@H](N)Cc1ccc(OP(=O)(O)O)cc1)C(=O)N[C@@H](CC(N)=O)C(N)=O (H-[pY]-Ile-Asn-NH2) |
| 7.9 | CC[C@H](C)[C@H](NC(=O)[C@H](Cc1ccc(OP(=O)(O)O)cc1)NC(=O)[C@@H](N)CCC(=O)O)C(=O)N[C@@H](CC(N)=O)C(N)=O (H-E[pY]IN-NH2) |
| 8.64 | CC[C@H](C)[C@H](NC(=O)[C@H](Cc1ccc(OP(=O)(O)O)cc1)NC(C)=O)C(=O)N[C@@H](CC(N)=O)C(N)=O (Ac-[pY]-Ile-Asn-NH2) |

Second part, the compound before the results:

| Structure (SMILES) | IC50 [µM] |
| --- | --- |
| CC[C@H](C)[C@H](NC(=O)[C@H](Cc1ccc(OP(=O)(O)O)cc1)NC(=O)OCc1ccccc1)C(=O)N[C@@H](CC(N)=O)C(N)=O (Cbz-[pY]-Ile-Asn-NH2) | 6.35 |
| CC[C@H](C)[C@H](NC(=O)[C@H](Cc1ccc(OP(=O)(O)O)cc1)NC(=O)[C@H](CCC(=O)O)NC(=O)c1ccccc1N)C(=O)N[C@@H](CC(N)=O)C(N)=O (H-[2Abz]E[pY]IN-NH2) | 0.022 |
| CC[C@H](C)[C@H](NC(=O)[C@H](Cc1ccc(OP(=O)(O)O)cc1)NC(=O)OCc1cccc(N)c1)C(=O)N[C@@H](CC(N)=O)C(N)=O | 0.065 |
